In patent US20150218534A1, “MODIFIED DNA POLYMERASE” (TOYOBO CO., LTD., priority 2012, published 2015):

Test system: bisulfite-treated human genomic DNA (MINT1, RAR, THBS1, MINT31)
Assay: PCR amplification of bisulfite-treated DNA
Type: biochemical
Conditions: 40 cycles (FIG. 12)
Description: Using bisulfite-treated DNA as a template and various primers, the difference in PCR amplification was compared. For comparison, KOD mutant (Y7A/V93K) and KOD (wild-type), each mixed with 1 μg of a KOD antibody per U of the enzyme, and Taq DNA polymerase mixed with an antibody (a mixture of equal amounts of Taq DNA polymerase (produced by Toyobo Co. Ltd.) and Anti-Taq High (produced by Toyobo Co. Ltd.)) were used.
The bisulfite-treated DNA used was human genomic DNA (produced by Roche) that had been treated with a MethylCode Bisulfite Conversion Kit of Invitrogen.
For PCR with the KOD mutant (Y7A/V93K) and PCR with the KOD, a buffer, MgSO4, and dNTPs included in KOD-Plus-Ver. 2 (produced by Toyobo Co. Ltd.) were used. 50 μl of individual reaction solutions containing 1× PCR buffer, 1.5 mM MgSO4, dNTPs (dATP, dTTP, dCTP, dGTP) in an amount of 0.2 mM, primers (SEQ ID NOs: 42 and 43 for amplification of MINT1; SEQ ID NOs: 44 and 45for amplification of RAR; SEQ ID NOs: 46 and 47 for amplification of THBS1; SEQ ID NOs: 48 and 49 for amplification of MINT31) in an amount of 15 pmol, 1 μl of bisulfite-treated DNA extract, and 1 U of each respective enzyme mixed with the antibody were used. PCR was performed using a GeneAmp PCR system 9700 (Applied Biosystems) on the following schedule: preliminary reaction at 94° C. for 2 minutes, followed by 40 cycles, each cycle consisting of 98° C. for 10 seconds, 55° C. for 15 seconds, and 68° C. for 1 minute.
For PCR with the Taq DNA polymerase, 50 μl of a reaction solution containing 1× buffer included in Blend Taq (product of Toyobo), dNTPs (dATP, […], dCTP, dGTP) in an amount of 0.2 mM, primers in an amount of 15 pmol (the same as above), 1 μl of bisulfite-treated DNA extract, and 2.5 U of the enzyme mixed with the antibody was used. […]
After the completion of each individual reaction, each of the resulting reaction solutions was analyzed using a DNA-1000 kit for MultiNA (produced by Shimadzu Corporation) to confirm amplified DNA fragments.

KOD Y7A/V93K: modified KOD DNA polymerase with Y7A and V93K
amplification of bisulfite-treated DNA: stable amplification was confirmed
